{"source": "patent US20170202787A1", "about": "“TREATMENT OF CHRONIC OBSTRUCTIVE PULMONARY DISEASE WITH NEBULIZED BETA 2-AGONIST OR COMBINED NEBULIZED BETA 2-AGONIST AND ANTICHOLINERGIC ADMINISTRATION” (Sunovion Respiratory Development, Inc., priority 2009, published 2017)", "key": {"[1]": {"details": "approved twice-daily dosing in COPD; cited from earlier work"}, "[2]": {"experiment": "not given", "remark": "listed apart in the source"}, "[3]": {"details": "nebulized, clinical trial in COPD; cited from earlier work"}, "[4]": {"experiment": "not given", "remark": "listed apart in the source"}, "[5]": {"details": "high efficiency nebulizer"}, "[6]": {"experiment": "not given", "remark": "listed apart in the source"}, "[7]": {"experiment": "Example 6: randomized, cross-over, single dose study of nebulized salmeterol in healthy volunteers"}, "[8]": {"details": "conventional nebulizer, same or higher dose"}, "[9]": {"details": "lower dose, high efficiency nebulizer"}}, "note": "Counter-ions that a name gives are not always drawn. Like-named read-outs stand apart in the source and are kept apart here.", "data": [{"smiles": "OCc1cc(C(O)CNCCCCCCOCCCCc2ccccc2)ccc1O", "note": "(centres unmarked) [salmeterol xinafoate]", "values": [{"measurement": "duration of clinically meaningful bronchodilation with acceptable side effects", "setting": "[1]", "result": 12, "unit": "h"}]}, {"smiles": "COc1ccc(CC(C)NCC(O)c2ccc(O)c(NC=O)c2)cc1", "note": "(racemic) [formoterol]", "values": [{"measurement": "duration of clinically meaningful bronchodilation", "setting": "[8]", "result": "less than 24 hours"}, {"measurement": "duration of clinically meaningful bronchodilation", "setting": "high efficiency nebulizer", "result": "at least 24 hours"}, {"measurement": "duration of clinically meaningful bronchodilation", "setting": "[2]; [8]", "result": "less than 24 hours"}, {"measurement": "duration of clinically meaningful bronchodilation", "setting": "[2]; high efficiency nebulizer", "result": "at least 24 hours"}]}, {"smiles": "COc1ccc(C[C@@H](C)NC[C@H](O)c2ccc(O)c(NC=O)c2)cc1.COc1ccc(C[C@@H](C)NC[C@H](O)c2ccc(O)c(NC=O)c2)cc1.O=C(O)/C=C/C(=O)O", "note": "[formoterol fumarate]", "values": [{"measurement": "duration of clinically meaningful bronchodilation with acceptable side effects", "setting": "[1]", "result": 12, "unit": "h"}]}, {"smiles": "COc1ccc(C[C@@H](C)NC[C@H](O)c2ccc(O)c(NC=O)c2)cc1", "note": "[arformoterol tartrate]", "values": [{"measurement": "duration of clinically meaningful bronchodilation", "setting": "[3]", "result": 24, "unit": "h"}, {"measurement": "side effects at the dosing giving 24 hours of bronchodilation", "setting": "[3]", "result": "unacceptable side effects"}, {"measurement": "duration of clinically meaningful bronchodilation with acceptable side effects", "setting": "[1]", "result": 12, "unit": "h"}]}, {"smiles": "COc1ccc(C[C@@H](C)NC[C@H](O)c2ccc(O)c(NC=O)c2)cc1", "note": "[arformoterol, R,R-formoterol]", "values": [{"measurement": "duration of clinically meaningful bronchodilation", "setting": "[4]; [8]", "result": "less than 24 hours"}, {"measurement": "duration of clinically meaningful bronchodilation", "setting": "[4]; high efficiency nebulizer", "result": "at least 24 hours"}, {"measurement": "adverse event profile compared to a comparable or lower dose with a conventional nebulizer", "setting": "[5]", "result": "improved adverse event profile"}, {"measurement": "lung deposition compared to a comparable or higher dose with a conventional nebulizer", "setting": "[5]", "result": "higher degree of lung deposition"}, {"measurement": "duration of clinically meaningful bronchodilation", "setting": "[6]; [8]", "result": "less than 24 hours"}, {"measurement": "duration of clinically meaningful bronchodilation", "setting": "[6]; high efficiency nebulizer", "result": "at least 24 hours"}]}, {"smiles": "OCc1cc(C(O)CNCCCCCCOCCCCc2ccccc2)ccc1O", "note": "(centres unmarked) [salmeterol]", "values": [{"measurement": "duration of clinically meaningful bronchodilation", "setting": "[7]; high efficiency nebulizer", "result": "at least 24 hours"}, {"measurement": "period of time of therapeutic effect", "setting": "[7]; high efficiency nebulizer, tested doses", "result": "12 to 24", "unit": "h"}, {"measurement": "adverse event profile / side effects (serum potassium, glucose) compared to a selected dose with a conventional nebulizer", "setting": "[7]; [9]", "result": "improved adverse event profile and/or improved side effects"}, {"measurement": "therapeutic effects compared to a selected dose with a conventional nebulizer", "setting": "[7]; [9]", "result": "improved or similar therapeutic effects"}, {"measurement": "duration of clinically meaningful bronchodilation", "setting": "[7]; same dose with conventional nebulizer, metered dose inhaler, or dry powder inhaler", "result": "less than 24 hours"}]}]}
